Laboratory results reported in publication PMC6134108, “Nystatin-like Pseudonocardia polyene B1, a novel disaccharide-containing antifungal heptaene antibiotic” (Scientific Reports, 2018).
Converted amounts (≈) assume the structure as drawn. Read-outs that look alike come from different tables or passages of the source.

Legend:
[1] = 7-day repeated intravenous dose toxicity; type: in vivo, mice; conditions: both sexes, ICR, mouse, in vivo; mice, 7-day repeated intravenous doses; read-out: MTD, maximal tolerated dose
Procedure: All in vivo mouse toxicity studies were conducted according to Testing Guidelines for Safety Evaluation of Drugs[32] and the Organisation for Economic Co-operation and Development (OECD) Guideline[33]. Male and female ICR mice were used 7 weeks old for the toxicity test. […]

[2] = test system: C. albicans SC5314; test: MIC assay (CLSI M27-A3 microbroth); type: cell-based; conditions: Candida albicans
Procedure: (§1) For the minimum inhibitory concentration (MIC) assay, strains for testing were grown on YPD agar for 24 hours, and subcultured to YPD broth medium. Whole strains were incubated for 18 hours at 35 °C by shaking incubator. Grown organisms were diluted with fresh RPMI 1640 medium to appropriate concentration, 5 × 10^4 CFU/ml. Cultures were inoculated to 96-well plates containing antifungal medium. All compounds were dissolved using Dimethyl Sulfoxide (DMSO) and diluted broth media. Fungal diluted solution and antifungal medium were mixed at 1:1 ratio so total 200 ul mixed medium was made. Whole experiment plates were incubated for 24 hours at 37 °C. […] The MICs were calculated in duplicate using the Clinical and Laboratory Standards Institute M27-A3 microbroth methodology. Hemolysis experiments and the 3-(4,5-dimethylthiazol-2-yl)-5-(3-carboxymethoxyphenyl)-2-(4-sulfophenyl)-2H-tetrazolium (MTS) cell proliferation colorimetric assay were performed following known procedures[12],[27],[29].

[3] = test system: C. albicans SL38; test: MIC assay (CLSI M27-A3 microbroth); type: cell-based; conditions: Candida albicans
Procedure: as §1

[4] = test system: C. albicans SL28; test: MIC assay (CLSI M27-A3 microbroth); type: cell-based; conditions: Candida albicans
Procedure: as §1

[5] = test system: Candida albicans KCTC7965; test: MIC assay (CLSI M27-A3 microbroth); type: cell-based
Procedure: as §1

[6] = cited from earlier work
[7] = parameters: method as in PMID 22382166; conditions: cited from earlier work
[8] = test system: horse blood cells; type: cell-based
Procedure: as §1

[9] = Microsomal (metabolic) stability; type: in vitro ADME; conditions: human liver microsomes 1.0 mg/ml; for half-life at 1 µM / microsomal CLint at 1 µM / remaining at 80 min, 1 µM: pH 7.4; for remaining at 80 min, 1 µM: 80-min incubation
Procedure: A metabolic stability experiment was conducted to calculate the rate of disappearance of polyene macrolides following in vitro incubation with human microsomes. Working solutions of polyene macrolides were prepared from a 10 mM stock solution in dimethyl sulfoxide (DMSO) diluted to a final concentration of 1 µM in 0.1 M potassium phosphate buffer (pH 7.4). Each incubation mixture included 1 mg/mL human microsomal protein (BD Gentest^TM, Franklin Lakes, NJ, USA) and 1 mM NADPH. The reactions were terminated at 0, 15, 45, and 80 min. The reaction mixtures were vigorously vortexed and then analyzed using the API2000 LC-MS/MS) system (Applied Biosystems, USA) using an Xterra MS C18 (3.5-µm, 2.1 × 50 mm, Waters).

[10] = parameters: method as in PMID 22382166; conditions: cited from earlier work; remark: listed apart in the source
[11] = in vivo; conditions: mouse, 1 mg/kg
From the text: Supplement 41598_2018_31801_MOESM1_ESM.docx, table 4: Table S4.

[12] = rats, oral administration
[13] = Single intravenous dose acute toxicity; type: in vivo, mice; conditions: both sexes, ICR, mouse, in vivo; mice, single intravenous administration; read-out: LD50, median lethal dose (dose causing 50% mortality)
Procedure: All in vivo mouse toxicity studies were conducted according to Testing Guidelines for Safety Evaluation of Drugs[32] and the Organisation for Economic Co-operation and Development (OECD) Guideline[33]. Male and female ICR mice were used 7 weeks old for the toxicity test. […] The single doses were 1, 2.5, and 5 mg per kg body weight.

[14] = in vivo; conditions: male, SD, rat, iv, 1 mg/kg
[15] = test system: C. albicans SC5314; test: In vivo efficacy, candidiasis-infected mouse model (survival); parameters: species or system Candida albicans; conditions: ICR mice infected with C. albicans SC5314; low dose 0.1 mg/kg
From the text: The systemic infection animal model was established using 4-week-old male ICR mice. Five C. albicans strains, consisting of two standard (C. albicans SC5314 and KCTC7965) and three clinical (C. albicans SL23, SL28, and SL38) strains were intravenously injected into the lateral tail vein of the various mouse groups. The mice were daily monitored for signs and mortality, and then they were euthanized. Subsequently, the target pathogenic C. albicans strain and optimal concentration for systemic infection for C. albicans were determined. A clinical isolate of C. albicans (SC5314) was grown and subcultured at 35 °C on Sabouraud dextrose agar (SDA) before infection. Candidiasis was induced by injecting 5 × 10^5 CFU/mouse via the tail vein of six 4-week-old ICR male mice. Each animal in the treatment group was administered a subcutaneous injection of reconstituted polyene macrolides 4 h after the infection. The drug efficacy was investigated by determining the survival rates of the mice.

Question: For `CC(=O)NC1C(OC2C(C)OC(OC3C=CC=CC=CC=CCCC=CC=CC(C)C(O)C(C)C(C)OC(=O)CC(O)CC(O)CC(O)CCC(O)C(O)CC4(O)CC(O)C(C(=O)O)C(C3)O4)C(O)C2N)OC(CO)C(O)C1O` (stereo not drawn) [NPP A1, nystatin-like Pseudonocardia polyene (NPP) A1], which MTD at 7 days [1] is on record?
Answer: Its MTD at 7 days is 5 to 10 mg/kg.

Question: And the MIC ([2]; SC5314, read-out: Antifungal activity (MIC))?
Answer: Its MIC is 16 µg/mL (≈ 14.2 µM).

Question: And the MIC ([3]; SL38, read-out: Antifungal activity (MIC))?
Answer: The MIC was 16 µg/mL (≈ 14.2 µM).

Question: What about the MIC ([4]; SL28, read-out: Antifungal activity (MIC)) of the same molecule?
Answer: Its MIC is 16 µg/mL (≈ 14.2 µM).

Question: What about the MIC ([5]; Candida albicans, KCTC7965, read-out: Antifungal activity (MIC)) of the same molecule?
Answer: Its MIC is 16 µg/mL (≈ 14.2 µM).

Question: And the “hemolytic activity, fold reduced versus nystatin A1” value [6]?
Answer: Its value is 10 fold.

Question: What about the “water-solubility, fold higher than nystatin A1” value [7] of the same molecule?
Answer: Its value is 300 fold.

Question: And the “Hemolytic activity (MHC, minimum hemolytic concentration)” value ([8]; 90% hemolysis against horse blood cells, ± percentage standard deviation)?
Answer: The value was 459.35 ± 32.5 µg/mL.

Question: What about the Clearance class [9] of the same molecule?
Answer: Its Clearance class is “Low”.

Question: What about the half-life at 1 µM [9] of the same molecule?
Answer: Its half-life at 1 µM is > 80 min.

Question: What about the microsomal CLint at 1 µM [9] of the same molecule?
Answer: Its microsomal CLint at 1 µM is < 8600 µL/min/mg.

Question: What about the remaining at 80 min, 1 µM [9] of the same molecule?
Answer: Its remaining at 80 min, 1 µM is 60.9%.

Question: What about the “antifungal activity, lower than nystatin A1” value [10] of the same molecule?
Answer: Its value is “approximately 50%”.

Question: And the AUC(0-inf) ([11]; read-out: AUC0-inf)?
Answer: The AUC(0-inf) was 12700 ng·h/mL.

Question: What about the AUC(0-t) ([11]; read-out: AUC0-t) of the same molecule?
Answer: The AUC(0-t) was 12400 ng·h/mL.

Question: What about the clearance ([11]; read-out: CL (converted)) of the same molecule?
Answer: The clearance was 1.67 mL/min/kg.

Question: And the MRT inf ([11]; read-out: MRTinf)?
Answer: The MRT inf was 66 min.

Question: And the Vd ([11]; read-out: Vss)?
Answer: Its Vd is 0.1 L/kg.

Question: What about the half-life ([11]; read-out: t1/2 (converted)) of the same molecule?
Answer: Its half-life is 60 min.

Question: What about the “detection in the plasma following oral administration” value [12] of the same molecule?
Answer: The value was “not detected”.

Question: And the LD50 at 7 days [13]?
Answer: The LD50 at 7 days was 16.1 mg/kg.

Question: And the AUC(0-inf) ([14]; plasma)?
Answer: Its AUC(0-inf) is 4470 ng·h/mL.

Question: What about the AUC(0-t) ([14]; plasma) of the same molecule?
Answer: The AUC(0-t) was 4390 ng·h/mL.

Question: What about the MRT inf ([14]; plasma) of the same molecule?
Answer: Its MRT inf is 42 min.

Question: What about the Vd ([14]; plasma) of the same molecule?
Answer: Its Vd is 0.1 L/kg.

Question: What about the clearance ([14]; plasma) of the same molecule?
Answer: The clearance was 3.33 mL/min/kg.

Question: What about the half-life ([14]; plasma) of the same molecule?
Answer: Its half-life is 36 min.

Question: Which MTD at 7 days [1] does the source give for `C[C@@H]1[C@H](O)[C@@H](C)/C=C/C=C/CC/C=C/C=C/C=C/C=C/[C@H](O[C@@H]2O[C@H](C)[C@@H](O)[C@H](N)[C@@H]2O)C[C@@H]2O[C@](O)(C[C@@H](O)[C@H](O)CC[C@@H](O)C[C@@H](O)C[C@@H](O)CC(=O)O[C@H]1C)C[C@H](O)[C@H]2C(=O)O` [Nystatin A1, nystatin A1] here?
Answer: The MTD at 7 days was 2 to 4 mg/kg.

Question: And the MIC ([2]; C. albicans SC5314, no visible growth, read-out: Antifungal activity (MIC))?
Answer: Its MIC is 4 µg/mL (≈ 4.32 µM).

Question: What about the MIC ([3]; C. albicans SL38, no visible growth, read-out: Antifungal activity (MIC)) of the same molecule?
Answer: Its MIC is 4 µg/mL (≈ 4.32 µM).

Question: What about the MIC ([4]; C. albicans SL28, no visible growth, read-out: Antifungal activity (MIC)) of the same molecule?
Answer: Its MIC is 4 µg/mL (≈ 4.32 µM).

Question: And the MIC ([5]; Candida albicans KCTC7965, no visible growth, read-out: Antifungal activity (MIC))?
Answer: The MIC was 4 µg/mL (≈ 4.32 µM).

Question: What about the survival rate [15] of the same molecule?
Answer: Its survival rate is “gradually decreased”.

Question: And the “Hemolytic activity (MHC, minimum hemolytic concentration)” value ([8]; horse)?
Answer: The value was 66.17 ± 0.90 µg/mL.

Question: And the Clearance class [9]?
Answer: The Clearance class was “Low”.

Question: What about the half-life at 1 µM [9] of the same molecule?
Answer: Its half-life at 1 µM is > 80 min.

Question: What about the microsomal CLint at 1 µM [9] of the same molecule?
Answer: Its microsomal CLint at 1 µM is < 8600 µL/min/mg.

Question: What about the remaining at 80 min, 1 µM [9] of the same molecule?
Answer: The remaining at 80 min, 1 µM was 115%.

Question: What about the AUC(0-inf) [11] of the same molecule?
Answer: Its AUC(0-inf) is 7150 ng·h/mL.

Question: And the AUC(0-t) [11]?
Answer: The AUC(0-t) was 7120 ng·h/mL.

Question: What about the MRT inf [11] of the same molecule?
Answer: Its MRT inf is 54 min.

Question: What about the Vd [11] of the same molecule?
Answer: The Vd was 0.1 L/kg.

Question: What about the clearance [11] of the same molecule?
Answer: Its clearance is 1.67 mL/min/kg.

Question: And the half-life [11]?
Answer: The half-life was 36 min.

Question: What about the LD50 at 7 days [13] of the same molecule?
Answer: The LD50 at 7 days was 5.37 mg/kg.

Question: And the MRT inf ([14]; in vivo)?
Answer: Its MRT inf is 48 min.

Question: What about the AUC(0-inf) ([14]; plasma) of the same molecule?
Answer: Its AUC(0-inf) is 5300 ng·h/mL.

Question: And the AUC(0-t) ([14]; plasma)?
Answer: The AUC(0-t) was 5120 ng·h/mL.

Question: And the Vd ([14]; plasma)?
Answer: Its Vd is 0.2 L/kg.

Question: What about the clearance ([14]; plasma) of the same molecule?
Answer: Its clearance is 3.33 mL/min/kg.

Question: And the half-life ([14]; plasma)?
Answer: The half-life was 36 min.
